Experimental data published in ChEMBL document CHEMBL1201862, “PubChem BioAssay data set” (2004).
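Dose response: 5 concentrations. Exposure: 48 h. Format: 96-well plates. Endpoint: linear interpolation; highest concentration if not reached. GI50 marks 50% less growth.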 Active and inactive are the calls of the source. Cut-off read from the data, not from the text of the source: active = GI50 up to about 1.1 µM and inactive = higher.

Tests used:
Experiment in all cases: NCI-60 cell line screen, 48 h
SF-268 = system: SF-268
UO-31 = system: UO-31
OVCAR-5 = system: OVCAR-5
HL-60 = system: HL-60
SK-MEL-2 = system: SK-MEL-2
K562 = system: K562
U-251 = system: U-251
ACHN = system: ACHN
UACC-62 = system: UACC-62
HCT-15 = system: HCT-15
HOP-62 = system: HOP-62
SK-OV-3 = system: SK-OV-3
OVCAR-8 = system: OVCAR-8
HCT-116 = system: HCT-116
NCI/ADR-RES = system: NCI/ADR-RES
NCI-H460 = system: NCI-H460
BT-549 = system: BT-549
NCI-H522 = system: NCI-H522
HCC 2998 = system: HCC 2998
MDA-MB-231 = system: MDA-MB-231

SMILES | GI50 (SF-268) | GI50 (UO-31) | GI50 (OVCAR-5) | GI50 (HL-60) | GI50 (SK-MEL-2) | GI50 (K562) | GI50 (U-251) | GI50 (ACHN) | GI50 (UACC-62) | GI50 (HCT-15) [µM] | GI50 (HOP-62) | GI50 (SK-OV-3) | GI50 (OVCAR-8) | GI50 (HCT-116) | GI50 (NCI/ADR-RES) | GI50 (NCI-H460) | GI50 (BT-549) | GI50 (NCI-H522) | GI50 (HCC 2998) | GI50 (MDA-MB-231)
C/C(=N\N=C(/S)N1CC2CCC(CC2)C1)c1ccncn1 | 0.133 µM (active) | < 0.01 µM (active) | 0.213 µM (active) | < 0.01 µM (active) | 1.19 µM (inactive) | < 0.01 µM (active) | < 0.01 µM (active) | < 0.01 µM (active) | < 0.01 µM (active) | < 0.01 | 0.108 µM (active) | < 0.01 µM (active) | < 0.01 µM (active) | < 0.01 µM (active) | < 0.01 µM (active) | < 0.01 µM (active) | 0.0512 µM (active) |  |  | 
O=NN(CCCl)C(=O)N[C@H]1CC[C@@H](CC(=O)O)CC1 | 33 µM (inactive) | > 100 µM (inactive) | > 100 µM (inactive) | 38.3 µM (inactive) | > 100 µM (inactive) | > 100 µM (inactive) | 74 µM (inactive) |  | 35.2 µM (inactive) | > 100 | > 100 µM (inactive) | > 100 µM (inactive) | > 100 µM (inactive) | > 100 µM (inactive) | > 100 µM (inactive) | 55.2 µM (inactive) |  | > 61.7 µM (inactive) | > 100 µM (inactive) | 
NS(=O)(=O)c1nnc(NC(=O)N(c2ccccc2)c2ccccc2)s1 | 30.3 µM (inactive) | 24 µM (inactive) | 24.8 µM (inactive) | 16.3 µM (inactive) | 31.3 µM (inactive) | 33.5 µM (inactive) | 43.7 µM (inactive) |  | 21.9 µM (inactive) | 22.5 | 27.2 µM (inactive) | 59.6 µM (inactive) | 19.9 µM (inactive) | 29.4 µM (inactive) | 18.2 µM (inactive) |  | 16.1 µM (inactive) | 16.8 µM (inactive) |  | 70.1 µM (inactive)
C#CCNC(CSSCC(N)C(=O)O)C(=O)O (stereo unspecified) | > 100 µM (inactive) | > 100 µM (inactive) | > 100 µM (inactive) |  | > 100 µM (inactive) |  | > 100 µM (inactive) | > 100 µM (inactive) | > 100 µM (inactive) | > 100 | > 100 µM (inactive) | > 100 µM (inactive) | > 100 µM (inactive) | > 100 µM (inactive) | > 100 µM (inactive) |  |  | > 100 µM (inactive) | > 100 µM (inactive) | > 100 µM (inactive)
N#C/C(N)=C(C#N)/N=C/N | > 100 µM (inactive) | 58.6 µM (inactive) | > 100 µM (inactive) | > 100 µM (inactive) | > 100 µM (inactive) | > 100 µM (inactive) | > 100 µM (inactive) | > 100 µM (inactive) | > 100 µM (inactive) | > 100 | > 100 µM (inactive) | > 100 µM (inactive) | > 100 µM (inactive) | > 100 µM (inactive) | > 100 µM (inactive) | > 100 µM (inactive) |  |  | > 100 µM (inactive) | > 100 µM (inactive)
CCOC(=O)NC(NCC(O)c1ccccc1)(C(F)(F)F)C(F)(F)F (stereo unspecified) | > 100 µM (inactive) | > 100 µM (inactive) | > 100 µM (inactive) | > 100 µM (inactive) | > 100 µM (inactive) | > 100 µM (inactive) | > 100 µM (inactive) | > 100 µM (inactive) | > 100 µM (inactive) | > 100 | > 100 µM (inactive) | > 100 µM (inactive) |  | > 100 µM (inactive) |  | > 100 µM (inactive) | > 100 µM (inactive) | > 100 µM (inactive) | > 100 µM (inactive) | > 100 µM (inactive)
Cc1cc(C)c2cc(N)c(Cl)nc2n1 | > 100 µM (inactive) | 63.4 µM (inactive) | > 100 µM (inactive) | > 100 µM (inactive) | > 100 µM (inactive) |  | 99.5 µM (inactive) | > 100 µM (inactive) | > 100 µM (inactive) | 60.5 |  | > 100 µM (inactive) | > 100 µM (inactive) | > 100 µM (inactive) | > 100 µM (inactive) | 96.4 µM (inactive) | > 100 µM (inactive) | 18.7 µM (inactive) |  | > 100 µM (inactive)
O=C1N/C(=N\C2CCCCC2)C2(CCN(CCCC3(c4ccc(F)cc4)OCCO3)CC2)N1c1ccccc1 | 21.5 µM (inactive) | 12.6 µM (inactive) | 16.7 µM (inactive) | 11.7 µM (inactive) | 16 µM (inactive) |  | 15.9 µM (inactive) | 14.8 µM (inactive) | > 10 µM (inactive) | 18.1 | 17.5 µM (inactive) | 21 µM (inactive) | 24.8 µM (inactive) | 12.2 µM (inactive) | 24.3 µM (inactive) |  | 4.61 µM (inactive) | 14.9 µM (inactive) |  | 
